The values below come from patent US20120115845A1, “THERAPEUTIC AGENTS” (priority 2007, published 2012).

A value given as a limit tells only on which side of the number the result lay.

Assay [1] deals with T1, human GHS receptor (Homo sapiens, UniProt Q92847). Put plainly: h bind IC50 (binding assay, Table 1). Conditions: human receptor; Table 1.
The target of assay [2] is T1, human GHS receptor. Put plainly: Ghrelin IP1 agonist assay (IP1 HTRF). It is filed as cell-based. More on the design: expressed in transfected cells; host or cells: HEK293s. The conditions noted are these: for Emax: 2 h, agonist effect as % maximal effect of GHRP-6 (5 μM), read-out: h IP1 ag %; for EC50: HEK293s cells stably expressing human GHS receptor, 2 hours at 37° C., read-out: h IP1 ag EC50. A digest of the protocol:
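Cells: HEK293s stably expressing human GHS receptor, in stimulation buffer containing 0.02% fatty acid free BSA.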
(In general: In TR-FRET formats the signal depends on donor and acceptor labels being close together.)

T1 sequence (Q92847 whole entry): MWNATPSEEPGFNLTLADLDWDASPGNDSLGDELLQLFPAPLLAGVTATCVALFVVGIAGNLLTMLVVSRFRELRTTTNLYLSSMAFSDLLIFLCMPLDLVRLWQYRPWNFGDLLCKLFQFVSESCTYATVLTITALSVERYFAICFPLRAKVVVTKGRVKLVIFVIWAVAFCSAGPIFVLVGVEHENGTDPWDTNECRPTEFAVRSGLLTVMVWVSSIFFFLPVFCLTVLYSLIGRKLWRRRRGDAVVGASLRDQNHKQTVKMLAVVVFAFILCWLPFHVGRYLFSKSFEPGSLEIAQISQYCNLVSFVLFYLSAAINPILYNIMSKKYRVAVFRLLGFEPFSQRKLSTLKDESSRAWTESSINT

The term IC50 denotes the point on the concentration scale where inhibition reaches its midpoint. A low value points to higher potency. As usually defined, the EC50 is the concentration needed to bring the measured effect to its halfway point. On human GHS receptor [1], `CN1CCC(S(=O)(=O)c2ccc3nc(NC(=O)NC(=O)c4cc(-n5cccn5)c(Cl)cc4Cl)sc3c2)CC1` [Example 259, 2,4-dichloro-N-(6-(1-methylpiperidin-4-ylsulfonyl)benzo [d]thiazol-2-ylcarbamoyl)-5-(1H-pyrazol-1-yl)benzamide] had an IC50 of 5.03 nM. In addition, at human GHS receptor [2], the Emax amounted to 0.653% and the EC50 was at least 20000 nM.

As for `CN(C)c1cccc(-c2ccc(Cl)c(C(=O)NC(=O)Nc3nc4ccc(S(C)(=O)=O)cc4s3)c2)n1` [Example 251, 2-chloro-5-(6-(dirnethylamino)pyridin-2-yl)-N-(6-(methylsulfonyl)benzo[d]thiazol-2-ylcarbamoyl) benzamide], the IC50 at human GHS receptor [1] is 34.4 nM. For the same compound, at human GHS receptor [2], the Emax amounted to 0% and the EC50 was at least 20000 nM.

At human GHS receptor [1], `CN1CCN(CCCS(=O)(=O)c2ccc3nc(NC(=O)NC(=O)c4cc(N5CCCC5)ccc4Cl)sc3c2)CC1` [Example 87, 2-Chloro-N-(6-(3-(4-methylpiperazin-1-yl)propylsulfonyl)benzothiazol-2-ylcarbamoyl)-5-(pyrrolidin-1-yl)benzamide] gave an IC50 of 0.2 nM. Further, on human GHS receptor [2], the Emax turned out to be 0.631% and the EC50 was determined as 6560 nM.

For `CS(=O)(=O)c1ccc2nc(NC(=O)NC(=O)c3cc(-n4cccn4)ccc3Cl)sc2c1` [Example 46, 2-Chloro-5-(pyrazol-1-yl)-N-(6-(methylsulfonyl)benzothiazol-2-ylcarbamoyl)benzamide], the IC50 at human GHS receptor [1] was 12 nM. Also, on human GHS receptor [2], the Emax amounted to 0.5% and the EC50 is 8240 nM.

`CS(=O)(=O)c1ccc2nc(NC(=O)NC(=O)c3cc(N4CCOCC4)ccc3Cl)sc2c1` [Example 54, 2-Chloro-N-(6-(methylsulfonyl)benzothiazol-2-ylcarbamoyl)-5-morpholin-4-yl benzamide] gave a concentration for half-maximal inhibition (IC50) at human GHS receptor [1] of 10.1 nM. In addition, at human GHS receptor [2], the Emax came to 0.0527% and the EC50 was at least 25000 nM.

`CC(=O)NC1CC(S(=O)(=O)c2ccc3nc(NC(=O)NC(=O)c4ccccc4Cl)sc3c2)C1` (stereo not drawn) [Example 223, N-[[6-(3-Acetamidocyclobutyl)sulfonylbenzothiazol-2-yl]carbamoyl]-2-chlorobenzamide]: the IC50 on human GHS receptor [1] was 95.8 nM. In addition, at human GHS receptor [2], the Emax was 24.8% and the EC50 was determined as 62.1 nM.

Take `CS(=O)(=O)c1ccc2nc(NC(=O)NC(=O)c3c(F)cccc3Cl)sc2c1` [Example 106, 2-Chloro-6-fluoro-N-[(6-methylsulfonylbenzothiazol-2-yl)carbamoyl]benzamide]: at human GHS receptor [1], the IC50 worked out at 216 nM. Besides, at human GHS receptor [2], the Emax came out at 12.9% and the EC50 was 32.8 nM.

`CC(C)(C)OC(=O)N1CCC(CCS(=O)(=O)c2ccc3nc(NC(=O)NC(=O)c4ccccc4Cl)sc3c2)CC1` [Example 218, tert-Butyl 4-[2-[2-[(2-chlorobenzoyl)carbamoylamino]benzothiazol-6-yl]sulfonylethyl]piperidine-1-carboxylate]: the IC50 at human GHS receptor [1] came out at 22.3 nM. Further, at human GHS receptor [2], the Emax was determined as 39.2% and the EC50 was found to be 18.5 nM.

In the case of `O=C(NC(=O)c1ccccc1Cl)Nc1nc2ccc(S(=O)(=O)CCNCCO)cc2s1` [Example 14, 2-Chloro-N-[[6-[2-(2-hydroxyethylamino)ethylsulfonyl]benzothiazol-2-yl]carbamoyl]benzamide], the half-maximal inhibitory concentration (IC50) at human GHS receptor [1] was 321 nM. At human GHS receptor [2], the Emax worked out at 47.6% and the EC50 was 166 nM.

On to `CS(=O)(=O)N1CCN(CCCS(=O)(=O)c2ccc3nc(NC(=O)NC(=O)c4ccccc4Cl)sc3c2)CC1` [Example 208, 2-Chloro-N-[[6-[3-(4-methylsulfonylpiperazin-1-yl)propylsulfonyl]benzothiazol-2-yl]carbamoyl]benzamide], for which the IC50 on human GHS receptor [1] is 18.1 nM. For the same compound, on human GHS receptor [2], the Emax is 30.7% and the EC50 turned out to be 13.5 nM.

Turning to `CS(=O)(=O)c1ccc2nc(NC(=O)NC(=O)c3cc([N+](=O)[O-])ccc3Cl)sc2c1` [Example 70, 2-Chloro-N-(6-(methylsulfonyl)benzothiazol-2-ylcarbamoyl)-5-nitrobenzamide], on human GHS receptor [1], the IC50 is 141 nM. At human GHS receptor [2], the Emax was 0.5% and the EC50 came to 389 nM.

On to `O=C(NC(=O)c1ccccc1Cl)Nc1nc2ccc(S(=O)(=O)CCc3ccccn3)cc2s1` [Example 190, 2-Chloro-N-[[6-(2-pyridin-2-ylethylsulfonyl)benzothiazol-2-yl]carbamoyl]benzamide], for which, on human GHS receptor [1], the IC50 was found to be 51.9 nM. Also, on human GHS receptor [2], the Emax worked out at 21.3% and the EC50 is 82.2 nM.

On human GHS receptor [1], `CC1CCCCN1CCS(=O)(=O)c1ccc2nc(NC(=O)NC(=O)c3ccccc3Cl)sc2c1` (stereo not drawn) [Example 27, 2-Chloro-N-[[6-[2-(2-methyl-1-piperidyl)ethylsulfonyl]benzothiazol-2-yl]carbamoyl]benzamide] gave an IC50 of 115 nM. Besides, on human GHS receptor [2], the Emax was 46.7% and the concentration giving a half-maximal response (EC50) was determined as 23.1 nM.

For the compound `CCN1CCC(S(=O)(=O)c2ccc3nc(NC(=O)NC(=O)c4ccccc4Cl)sc3c2)CC1` [Example 173, 2-Chloro-N-[[6-[(1-ethyl-4-piperidyl)sulfonyl]benzothiazol-2-yl]carbamoyl]benzamide], the concentration for half-maximal inhibition (IC50) at human GHS receptor [1] was 76.2 nM. At human GHS receptor [2], the Emax turned out to be 52.2% and the EC50 turned out to be 8.43 nM.

Consider `CN(C)[C@@H]1CCN(c2ccc(Cl)c(C(=O)NC(=O)Nc3nc4ccc(S(C)(=O)=O)cc4s3)c2)C1` [Example 233, (R)-2-chloro-5-(3-(dimethylamino)pyrrolidin-1-yl)-N-(6-(methylsulfonyl)benzo[d]thiazol-2-ylcarbamoyl) benzamide], for which the IC50 at human GHS receptor [1] stood at 39.1 nM. On human GHS receptor [2], the Emax is 10.4% and the EC50 was at least 20000 nM.

The compound `CCN(CC)CCCS(=O)(=O)c1ccc2nc(NC(=O)NC(=O)c3cc(N4CCOCC4)ccc3Cl)sc2c1` [Example 97, 2-Chloro-N-(6-(3-(diethylamino)propylsulfonyl)benzothiazol-2-ylcarbamoyl)-5-morpholinobenzamide] had an IC50 on human GHS receptor [1] of 4.2 nM. Also, at human GHS receptor [2], the Emax came out at 8.13% and the EC50 was determined as 4.28 nM.

On human GHS receptor [1], `CC(C)(C)OC(=O)N1CC(Oc2ccc(Cl)c(C(=O)NC(=O)Nc3nc4ccc(S(C)(=O)=O)cc4s3)c2)C1` [Example 252, tert-buty 3-(4-chloro-3-(6-(methylsulfonyl)benzo[d]thiazol-2-ylcarbamoyl-carbamoyl)phenoxy)azetidine-1-carboxylate] came in with an IC50 of 18.7 nM. Further, at human GHS receptor [2], the Emax worked out at 1% and the EC50 turned out to be 27.7 nM.

`O=C(NC(=O)c1ccccc1Cl)Nc1nc2ccc(S(=O)(=O)CCN3CC[C@H](F)C3)cc2s1` [Example 16, 2-Chloro-N-[[6-[2-[(3S)-3-fluoropyrrolidin-1-yl]ethylsulfonyl]benzothiazol-2-yl]carbamoyl]benzamide] returned an IC50 on human GHS receptor [1] of 100 nM. At human GHS receptor [2], the Emax was 34.1% and the EC50 stood at 64.4 nM.

In the case of `CCN1CCC[C@@H]1CS(=O)(=O)c1ccc2nc(NC(=O)NC(=O)c3ccccc3Cl)sc2c1` [Example 164, 2-Chloro-N-[[6-[[(2R)-1-ethylpyrrolidin-2-yl]methylsulfonyl]benzothiazol-2-yl]carbamoyl]benzamide], at human GHS receptor [1], the IC50 turned out to be 174 nM. Besides, on human GHS receptor [2], the Emax came out at 43.9% and the EC50 was found to be 70.2 nM.

`CCN1CC(S(=O)(=O)c2ccc3nc(NC(=O)NC(=O)c4ccccc4Cl)sc3c2)C1` [Example 185, 2-Chloro-N-[[6-(1-ethylazetidin-3-yl)sulfonylbenzothiazol-2-yl]carbamoyl]benzamide] registered an IC50 on human GHS receptor [1] of 66.9 nM. Also, at human GHS receptor [2], the Emax was 39.7% and the EC50 was determined as 69.2 nM.

As to `O=C(NC(=O)c1ccccc1Cl)Nc1nc2ccc(S(=O)(=O)CCCN3CCS(=O)(=O)CC3)cc2s1` [Example 150, 2-Chloro-N-[[6-[3-(1,1-dioxo-1,4-thiazinan-4-yl)propylsulfonyl]benzothiazol-2-yl]carbamoyl]benzamide], the IC50 on human GHS receptor [1] came out at 52.7 nM. At human GHS receptor [2], the Emax is 33.4% and the EC50 turned out to be 30.9 nM.

In turn, `Cc1cc(C)n(-c2ccc(Cl)c(C(=O)NC(=O)Nc3nc4ccc(S(=O)(=O)CCCN5CCN(C)CC5)cc4s3)c2)n1` [Example 237, 2-chloro-5-(3,5-dimethyl-1H-pyrazol-1-yl)-N-(6-(3-(4-methylpiperazin-1-yl)propylsulfonyl)benzo[d]thiazol-2-ylcarbamoyl) benzamide] displayed an IC50 at human GHS receptor [1] of 0.7 nM. On human GHS receptor [2], the Emax was 0% and the EC50 was at least 20000 nM.

As to `CC(C)N1CCN(CCCS(=O)(=O)c2ccc3nc(NC(=O)NC(=O)c4ccccc4Cl)sc3c2)CC1` [Example 199, 2-Chloro-N-[[6-[3-(4-propan-2-ylpiperazin-1-yl)propylsulfonyl]benzothiazol-2-yl]carbamoyl]benzamide], the IC50 on human GHS receptor [1] was determined as 2.2 nM. On human GHS receptor [2], the Emax amounted to 42.2% and the EC50 came to 1.82 nM.

The compound `CC(C)N1CCC(S(=O)(=O)c2ccc3nc(NC(=O)NC(=O)c4ccccc4Cl)sc3c2)C1` (stereo not drawn) [Example 162, 2-Chloro-N-[[6-(1-propan-2-ylpyrrolidin-3-yl)sulfonylbenzothiazol-2-yl]carbamoyl]benzamide] had an IC50 at human GHS receptor [1] of 296 nM. Besides, on human GHS receptor [2], the Emax amounted to 48.3% and the EC50 was determined as 11.4 nM.

Compound `CS(=O)(=O)c1ccc2nc(NC(=O)NC(=O)c3ccccc3Oc3ccccc3)sc2c1` [Example 127, N-[(6-Methylsulfonylbenzothiazol-2-yl)carbamoyl]-2-phenoxy-benzamide] yielded an IC50 at human GHS receptor [1] of 56.1 nM. Moreover, on human GHS receptor [2], the Emax is 36.6% and the 50% effective concentration (EC50) worked out at 320 nM.

Regarding `CS(=O)(=O)c1ccc2nc(NC(=O)NC(=O)c3cc(-n4ccnc4)ccc3Cl)sc2c1` [Example 69, 2-Chloro-5-(1H-imidazol-1-yl)-N-(6-(methylsulfonyl)benzothiazol-2-ylcarbamoyl)benzamide], on human GHS receptor [1], the IC50 is 37.4 nM. On human GHS receptor [2], the Emax came out at 14.1% and the EC50 is 3010 nM.
